Data reported in ChEMBL document CHEMBL1151433, “National and regional assessment of antimicrobial resistance among community-acquired respiratory tract pathogens identified in a 2005-2006 U.S. Faropenem surveillance study” (2007).
≈ marks a conversion by molar mass, not a printed value.

Experiments:
Streptococcus pneumoniae [1] = experiment: Antibacterial activity against Streptococcus pneumoniae ATCC 49619 isolated from respiratory tract infected patients with 6 to 14 years of age after 20 to 24 hrs by broth microdilution method; assay type: functional
Streptococcus pneumoniae [2] = experiment: Antibacterial activity against Streptococcus pneumoniae ATCC 49619 isolated from respiratory tract infected patients within 2 years of age after 20 to 24 hrs by broth microdilution method; assay type: functional
Streptococcus pneumoniae [3] = experiment: Antibacterial activity against Streptococcus pneumoniae ATCC 49619 isolated from respiratory tract infected patients assessed as susceptible isolates after 20 to 24 hrs by broth microdilution method; assay type: functional
Streptococcus pneumoniae [4] = experiment: Antibacterial activity against Streptococcus pneumoniae ATCC 49619 isolated from respiratory tract infected patients with 3 to 5 years of age after 20 to 24 hrs by broth microdilution method; assay type: functional
Streptococcus pneumoniae [5] = experiment: Antibacterial activity against Streptococcus pneumoniae ATCC 49619 isolated from respiratory tract infected outpatients after 20 to 24 hrs by broth microdilution method; assay type: functional
Streptococcus pneumoniae [6] = experiment: Antibacterial activity against penicillin-resistant Streptococcus pneumoniae ATCC 49619 isolated from respiratory tract infected patients after 20 to 24 hrs by broth microdilution method; assay type: functional
Streptococcus pneumoniae [7] = experiment: Antibacterial activity against penicillin-resistant Streptococcus pneumoniae ATCC 49619 isolated from respiratory tract infected patients assessed as susceptible isolates after 20 to 24 hrs by broth microdilution method; assay type: functional
Streptococcus pneumoniae [8] = experiment: Antibacterial activity against Streptococcus pneumoniae ATCC 49619 isolated from respiratory tract infected patients within 2 years of age assessed as resistant isolates after 20 to 24 hrs by broth microdilution method; assay type: functional
Streptococcus pneumoniae [9] = experiment: Antibacterial activity against Streptococcus pneumoniae ATCC 49619 isolated from respiratory tract infected male patients assessed as resistant isolates after 20 to 24 hrs by broth microdilution method; assay type: functional
Streptococcus pneumoniae [10] = experiment: Antibacterial activity against penicillin-resistant Streptococcus pneumoniae ATCC 49619 isolated from respiratory tract infected patients assessed as resistant isolates after 20 to 24 hrs by broth microdilution method; assay type: functional
Streptococcus pneumoniae [11] = experiment: Antibacterial activity against penicillin-intermediate Streptococcus pneumoniae ATCC 49619 isolated from respiratory tract infected patients assessed as susceptible isolates after 20 to 24 hrs by broth microdilution method; assay type: functional
Streptococcus pneumoniae [12] = experiment: Antibacterial activity against penicillin-susceptible Streptococcus pneumoniae ATCC 49619 isolated from respiratory tract infected patients assessed as susceptible isolates after 20 to 24 hrs by broth microdilution method; assay type: functional
Streptococcus pneumoniae [13] = experiment: Antibacterial activity against penicillin-susceptible Streptococcus pneumoniae ATCC 49619 isolated from respiratory tract infected patients after 20 to 24 hrs by broth microdilution method; assay type: functional
Streptococcus pneumoniae [14] = experiment: Antibacterial activity against Streptococcus pneumoniae ATCC 49619 isolated from respiratory tract infected male patients after 20 to 24 hrs by broth microdilution method; assay type: functional
Streptococcus pneumoniae [15] = experiment: Antibacterial activity against penicillin-intermediate Streptococcus pneumoniae ATCC 49619 isolated from respiratory tract infected patients assessed as resistant isolates after 20 to 24 hrs by broth microdilution method; assay type: functional
Streptococcus pneumoniae [16] = experiment: Antibacterial activity against Streptococcus pneumoniae ATCC 49619 isolated from respiratory tract infected patients assessed as resistant isolates after 20 to 24 hrs by broth microdilution method; assay type: functional
Streptococcus pneumoniae [17] = experiment: Antibacterial activity against Streptococcus pneumoniae ATCC 49619 isolated from respiratory tract infected patients with 3 to 5 years of age assessed as resistant isolates after 20 to 24 hrs by broth microdilution method; assay type: functional
Streptococcus pneumoniae [18] = experiment: Antibacterial activity against Streptococcus pneumoniae ATCC 49619 isolated from respiratory tract infected patients with 15 to 64 years of age after 20 to 24 hrs by broth microdilution method; assay type: functional
Streptococcus pneumoniae [19] = experiment: Antibacterial activity against Streptococcus pneumoniae ATCC 49619 isolated from respiratory tract infected outpatients assessed as resistant isolates after 20 to 24 hrs by broth microdilution method; assay type: functional
Streptococcus pneumoniae [20] = experiment: Antibacterial activity against Streptococcus pneumoniae ATCC 49619 isolated from respiratory tract infected patients more than 65 years of age assessed as resistant isolates after 20 to 24 hrs by broth microdilution method; assay type: functional
Streptococcus pneumoniae [21] = experiment: Antibacterial activity against Streptococcus pneumoniae ATCC 49619 isolated from respiratory tract infected inpatients assessed as resistant isolates after 20 to 24 hrs by broth microdilution method; assay type: functional
Streptococcus pneumoniae [22] = experiment: Antibacterial activity against Streptococcus pneumoniae ATCC 49619 isolated from respiratory tract infected patients with 6 to 14 years of age assessed as resistant isolates after 20 to 24 hrs by broth microdilution method; assay type: functional
Streptococcus pneumoniae [23] = experiment: Antibacterial activity against Streptococcus pneumoniae ATCC 49619 isolated from respiratory tract infected patients more than 65 years of age after 20 to 24 hrs by broth microdilution method; assay type: functional
Haemophilus influenzae [24] = experiment: Antibacterial activity against beta lactamase-positive Haemophilus influenzae […] isolated from respiratory tract infected patients assessed as susceptible isolates after 20 to 24 hrs by broth microdilution method; assay type: functional, ATCC 49247
Haemophilus influenzae [25] = experiment: Antibacterial activity against beta lactamase-negative Haemophilus influenzae […] isolated from respiratory tract infected patients assessed as susceptible isolates after 20 to 24 hrs by broth microdilution method; assay type: functional
Streptococcus pneumoniae [26] = experiment: Antibacterial activity against Streptococcus pneumoniae ATCC 49619 isolated from respiratory tract infected patients with 15 to 64 years of age assessed as resistant isolates after 20 to 24 hrs by broth microdilution method; assay type: functional
Haemophilus influenzae [27] = experiment: Antibacterial activity against Haemophilus influenzae […] isolated from respiratory tract infected patients after 20 to 24 hrs by broth microdilution method; assay type: functional; conditions: ATCC 49247
Streptococcus pneumoniae [28] = experiment: Antibacterial activity against Streptococcus pneumoniae ATCC 49619 isolated from respiratory tract infected inpatients after 20 to 24 hrs by broth microdilution method; assay type: functional
Haemophilus influenzae [29] = experiment: Antibacterial activity against beta lactamase-negative Haemophilus influenzae […] isolated from respiratory tract infected patients after 20 to 24 hrs by broth microdilution method; assay type: functional; conditions: ATCC 49247
Streptococcus pneumoniae [30] = experiment: Antibacterial activity against Streptococcus pneumoniae ATCC 49619 isolated from respiratory tract infected patients after 20 to 24 hrs by broth microdilution method; assay type: functional
Moraxella catarrhalis = experiment: Antibacterial activity against Moraxella catarrhalis isolated from respiratory tract infected patients after 20 to 24 hrs by broth microdilution method; assay type: functional
Streptococcus pneumoniae [31] = experiment: Antibacterial activity against Streptococcus pneumoniae ATCC 49619 isolated from respiratory tract infected female patients assessed as resistant isolates after 20 to 24 hrs by broth microdilution method; assay type: functional
Streptococcus pneumoniae [32] = experiment: Antibacterial activity against penicillin-susceptible Streptococcus pneumoniae ATCC 49619 isolated from respiratory tract infected patients assessed as resistant isolates after 20 to 24 hrs by broth microdilution method; assay type: functional
Streptococcus pneumoniae [33] = experiment: Antibacterial activity against penicillin-intermediate Streptococcus pneumoniae ATCC 49619 isolated from respiratory tract infected patients after 20 to 24 hrs by broth microdilution method; assay type: functional
Haemophilus influenzae [34] = experiment: Antibacterial activity against beta lactamase-positive Haemophilus influenzae […] isolated from respiratory tract infected patients after 20 to 24 hrs by broth microdilution method; assay type: functional; conditions: ATCC 49247
Haemophilus influenzae [35] = experiment: Antibacterial activity against Haemophilus influenzae […] isolated from respiratory tract infected patients assessed as susceptible isolates after 20 to 24 hrs by broth microdilution method; assay type: functional, ATCC 49247
Streptococcus pneumoniae [36] = experiment: Antibacterial activity against Streptococcus pneumoniae ATCC 49619 isolated from respiratory tract infected female patients after 20 to 24 hrs by broth microdilution method; assay type: functional

Compound: CC[C@H]1OC(=O)[C@H](C)[C@@H](O[C@H]2C[C@@](C)(OC)[C@@H](O)[C@H](C)O2)[C@H](C)[C@@H](O[C@@H]2O[C@H](C)C[C@H](N(C)C)[C@H]2O)[C@](C)(O)C[C@@H](C)CN(C)[C@H](C)[C@@H](O)[C@]1(C)O [AZITHROMYCIN]
- MIC90 (Streptococcus pneumoniae [1]): > 16 µg/mL
- MIC90 (Streptococcus pneumoniae [2]): > 16 µg/mL
- Activity (Streptococcus pneumoniae [3]): 65.5%
- MIC90 (Streptococcus pneumoniae [4]): > 16 µg/mL
- MIC90 (Streptococcus pneumoniae [5]): > 16 µg/mL
- MIC50 (Streptococcus pneumoniae [6]): 32 µg/mL (≈ 42.7 µM)
- MIC90 (Streptococcus pneumoniae [6]): > 16 µg/mL
- Activity (Streptococcus pneumoniae [7]): 19.4%
- Activity (Streptococcus pneumoniae [8]): 50.5%
- Activity (Streptococcus pneumoniae [9]): 36%
- Activity (Streptococcus pneumoniae [10]): 80.6%
- Activity (Streptococcus pneumoniae [11]): 35.5%
- Activity (Streptococcus pneumoniae [12]): 87.9%
- MIC50 (Streptococcus pneumoniae [13]): ≤ 0.12 µg/mL
- MIC90 (Streptococcus pneumoniae [13]): 4 µg/mL (≈ 5.34 µM)
- MIC90 (Streptococcus pneumoniae [14]): > 16 µg/mL
- Activity (Streptococcus pneumoniae [15]): 64.5%
- Activity (Streptococcus pneumoniae [16]): 34%
- Activity (Streptococcus pneumoniae [17]): 42.4%
- MIC90 (Streptococcus pneumoniae [18]): > 16 µg/mL
- Activity (Streptococcus pneumoniae [19]): 34.8%
- Activity (Streptococcus pneumoniae [20]): 33.8%
- Activity (Streptococcus pneumoniae [21]): 33%
- Activity (Streptococcus pneumoniae [22]): 36%
- MIC90 (Streptococcus pneumoniae [23]): > 16 µg/mL
- Activity (Haemophilus influenzae [24]): 98.1%
- Activity (Haemophilus influenzae [25]): 98.9%
- Activity (Streptococcus pneumoniae [26]): 27.6%
- MIC50 (Haemophilus influenzae [27]): 1 µg/mL (≈ 1.34 µM)
- MIC90 (Haemophilus influenzae [27]): 2 µg/mL (≈ 2.67 µM)
- MIC90 (Streptococcus pneumoniae [28]): > 16 µg/mL
- MIC50 (Haemophilus influenzae [29]): 1 µg/mL (≈ 1.34 µM)
- MIC90 (Haemophilus influenzae [29]): 2 µg/mL (≈ 2.67 µM)
- MIC50 (Streptococcus pneumoniae [30]): ≤ 0.12 µg/mL
- MIC90 (Streptococcus pneumoniae [30]): > 16 µg/mL
- MIC50 (Moraxella catarrhalis): ≤ 0.12 µg/mL
- MIC90 (Moraxella catarrhalis): ≤ 0.12 µg/mL
- Activity (Streptococcus pneumoniae [31]): 31.2%
- Activity (Streptococcus pneumoniae [32]): 11.3%
- MIC50 (Streptococcus pneumoniae [33]): 4 µg/mL (≈ 5.34 µM)
- MIC90 (Streptococcus pneumoniae [33]): > 16 µg/mL
- MIC50 (Haemophilus influenzae [34]): 1 µg/mL (≈ 1.34 µM)
- MIC90 (Haemophilus influenzae [34]): 2 µg/mL (≈ 2.67 µM)
- Activity (Haemophilus influenzae [35]): 98.7%
- MIC90 (Streptococcus pneumoniae [36]): > 16 µg/mL
